Results: ChEMBL document CHEMBL3351349, “Histone deacetylase inhibitors derived from 1,2,3,4-tetrahydropyrrolo[1,2-a]pyrazine and related heterocycles selective for the HDAC6 isoform” (Bioorg Med Chem Lett, 2014)
pIC50: −log10 of the molar value.

Columns and labels:
[1] = molecular target: T1, Protein deacetylase HDAC6 (Homo sapiens, UniProt Q9UBN7); assay: Inhibition of recombinant N-GST-tagged HDAC6 (unknown origin) assessed as reduction in deacetylation of Ac-Arg-Gly-Lys(Ac)-AMC substrate by fluorescence assay
T1 sequence (Q9UBN7 whole entry): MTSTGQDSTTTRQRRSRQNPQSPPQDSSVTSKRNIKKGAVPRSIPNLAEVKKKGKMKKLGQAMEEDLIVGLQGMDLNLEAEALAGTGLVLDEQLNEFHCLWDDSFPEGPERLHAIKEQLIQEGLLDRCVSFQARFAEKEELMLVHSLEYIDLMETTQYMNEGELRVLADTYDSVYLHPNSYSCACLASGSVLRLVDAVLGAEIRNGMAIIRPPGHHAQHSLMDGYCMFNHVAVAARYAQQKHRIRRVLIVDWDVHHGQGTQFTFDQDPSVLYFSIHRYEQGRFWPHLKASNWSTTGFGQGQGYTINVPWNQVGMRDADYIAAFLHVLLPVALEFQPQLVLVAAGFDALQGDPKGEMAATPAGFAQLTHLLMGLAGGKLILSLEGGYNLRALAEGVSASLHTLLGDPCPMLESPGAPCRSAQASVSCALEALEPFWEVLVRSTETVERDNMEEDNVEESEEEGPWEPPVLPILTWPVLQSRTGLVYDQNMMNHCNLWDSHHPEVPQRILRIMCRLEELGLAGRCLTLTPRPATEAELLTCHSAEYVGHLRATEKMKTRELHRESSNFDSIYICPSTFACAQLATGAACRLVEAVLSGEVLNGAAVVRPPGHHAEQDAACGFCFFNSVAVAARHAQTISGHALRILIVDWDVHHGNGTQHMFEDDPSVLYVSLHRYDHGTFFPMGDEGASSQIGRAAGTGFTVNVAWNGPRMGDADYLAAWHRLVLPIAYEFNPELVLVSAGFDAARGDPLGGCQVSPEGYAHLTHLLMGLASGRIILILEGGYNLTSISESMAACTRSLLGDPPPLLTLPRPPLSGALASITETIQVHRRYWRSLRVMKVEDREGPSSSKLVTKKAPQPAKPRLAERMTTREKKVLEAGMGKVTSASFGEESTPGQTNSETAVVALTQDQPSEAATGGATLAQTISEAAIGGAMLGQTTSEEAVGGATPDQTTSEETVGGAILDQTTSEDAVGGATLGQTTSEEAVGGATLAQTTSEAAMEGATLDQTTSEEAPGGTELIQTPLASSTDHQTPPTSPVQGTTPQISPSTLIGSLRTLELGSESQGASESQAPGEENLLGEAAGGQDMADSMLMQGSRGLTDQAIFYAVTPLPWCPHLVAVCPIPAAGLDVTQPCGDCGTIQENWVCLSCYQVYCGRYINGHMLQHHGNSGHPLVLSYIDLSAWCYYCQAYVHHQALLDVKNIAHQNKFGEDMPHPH

[2] = molecular target: T1, Protein deacetylase HDAC6; assay: Inhibition of HDAC6 in human HeLa cells assessed as reduction in K40 hyperacetylation of alpha-tubulin incubated for 6 hrs by immunofluorescence assay; type: cell-based
[3] = molecular target: Histone deacetylase (HDAC1 and HDAC2) (Homo sapiens) (UniProt Q13547+Q92769); assay: Inhibition of HDAC1/HDAC2 in human HeLa cells assessed as reduction in acetylated histone levels at 20 uM incubated for 24 hrs by immunofluorescence assay; type: cell-based
Histone deacetylase 1 = Histone deacetylase 1 (Homo sapiens, UniProt Q13547); assay: Inhibition of full length GST-tagged human HDAC1 using Arg-His-Lys-Lys(Ac) substrate incubated for 2 hrs by fluorescence assay
Histone deacetylase 2 = Histone deacetylase 2 (Homo sapiens, UniProt Q92769)
Histone deacetylase 3 = Histone deacetylase 3 (Homo sapiens, UniProt O15379); assay: Inhibition of full length C-terminal 6x-His tagged human HDAC3 using Arg-His-Lys-Lys(Ac) substrate incubated for 2 hrs by fluorescence assay
Histone deacetylase 4 = Histone deacetylase 4 (Homo sapiens, UniProt P56524)
Histone deacetylase 5 = Histone deacetylase 5 (Homo sapiens, UniProt Q9UQL6)
Histone deacetylase 8 = molecular target: T2, Histone deacetylase 8 (Homo sapiens, UniProt Q9BY41); assay: Inhibition of full length C-terminal 6x-His tagged human HDAC8 using Arg-His-Lys(Ac)-Lys(Ac) substrate incubated for 2 hrs by fluorescence assay
T2 sequence (Q9BY41 whole entry): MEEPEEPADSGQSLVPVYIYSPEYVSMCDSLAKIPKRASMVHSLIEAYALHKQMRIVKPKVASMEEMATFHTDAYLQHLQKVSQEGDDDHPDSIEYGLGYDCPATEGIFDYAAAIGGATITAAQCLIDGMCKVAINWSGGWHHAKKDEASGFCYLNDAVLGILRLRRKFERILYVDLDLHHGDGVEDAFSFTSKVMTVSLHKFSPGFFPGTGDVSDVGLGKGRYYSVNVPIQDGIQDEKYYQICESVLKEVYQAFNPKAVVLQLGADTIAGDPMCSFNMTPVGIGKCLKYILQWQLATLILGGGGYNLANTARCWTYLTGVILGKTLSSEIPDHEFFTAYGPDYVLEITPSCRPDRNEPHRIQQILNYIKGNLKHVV

[4] = molecular target: T3, Polyamine deacetylase HDAC10 (Homo sapiens, UniProt Q969S8); assay: Inhibition of N-terminal GST-tagged human HDAC10 (1 to 481 residues) using Arg-His-Lys-Lys(Ac) substrate incubated for 2 hrs by fluorescence assay
T3 sequence (Q969S8 whole entry): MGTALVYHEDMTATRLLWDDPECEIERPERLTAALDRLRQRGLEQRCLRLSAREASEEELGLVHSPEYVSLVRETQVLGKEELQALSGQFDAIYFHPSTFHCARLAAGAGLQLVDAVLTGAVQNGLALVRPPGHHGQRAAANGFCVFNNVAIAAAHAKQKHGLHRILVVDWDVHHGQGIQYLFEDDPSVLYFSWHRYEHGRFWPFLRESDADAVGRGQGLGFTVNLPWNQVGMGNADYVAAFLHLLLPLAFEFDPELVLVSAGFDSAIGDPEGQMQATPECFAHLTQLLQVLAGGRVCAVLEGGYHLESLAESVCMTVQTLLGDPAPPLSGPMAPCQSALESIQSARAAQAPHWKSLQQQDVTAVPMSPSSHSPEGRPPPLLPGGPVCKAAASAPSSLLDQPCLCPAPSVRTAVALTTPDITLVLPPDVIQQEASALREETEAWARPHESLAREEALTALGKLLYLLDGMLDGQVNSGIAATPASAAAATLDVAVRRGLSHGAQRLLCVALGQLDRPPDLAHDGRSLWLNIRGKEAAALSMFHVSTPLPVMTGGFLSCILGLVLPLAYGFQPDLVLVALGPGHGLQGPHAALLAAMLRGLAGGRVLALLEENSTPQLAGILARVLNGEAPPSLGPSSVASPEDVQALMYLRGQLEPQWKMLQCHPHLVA

Histone deacetylase 11 = molecular target: T4, Histone deacetylase 11 (Homo sapiens, UniProt Q96DB2); assay: Inhibition of full length N-terminal GST-tagged human HDAC11 using Arg-His-Lys-Lys(Ac) substrate incubated for 2 hrs by fluorescence assay
T4 sequence (Q96DB2 whole entry): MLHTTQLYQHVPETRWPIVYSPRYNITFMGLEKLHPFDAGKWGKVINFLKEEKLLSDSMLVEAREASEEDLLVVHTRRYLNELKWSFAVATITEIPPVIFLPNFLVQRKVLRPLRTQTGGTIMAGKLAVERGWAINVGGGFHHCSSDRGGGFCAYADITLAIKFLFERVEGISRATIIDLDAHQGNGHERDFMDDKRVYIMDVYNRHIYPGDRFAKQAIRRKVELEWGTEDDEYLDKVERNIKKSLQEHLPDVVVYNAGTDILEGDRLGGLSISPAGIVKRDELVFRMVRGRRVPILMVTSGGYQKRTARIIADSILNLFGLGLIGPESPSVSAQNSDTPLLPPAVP

[5] = Aqueous solubility in pH 6.8 buffer solution; type: physicochemical
[6] = Permeability in human Caco2 cells at pH 7.4; type: ADME, cell-based; conditions: Caco-2, pH 7.4, read-out: permeability
HeLa = assay: Selectivity index, ratio of IC50 for HDAC1/HDAC2 in human HeLa cells nuclear extracts to IC50 for recombinant N-GST-tagged HDAC6 (unknown origin); type: cell-based

Chain of Histone deacetylase (HDAC1 and HDAC2) (Homo sapiens) (Q13547 whole entry, looked up): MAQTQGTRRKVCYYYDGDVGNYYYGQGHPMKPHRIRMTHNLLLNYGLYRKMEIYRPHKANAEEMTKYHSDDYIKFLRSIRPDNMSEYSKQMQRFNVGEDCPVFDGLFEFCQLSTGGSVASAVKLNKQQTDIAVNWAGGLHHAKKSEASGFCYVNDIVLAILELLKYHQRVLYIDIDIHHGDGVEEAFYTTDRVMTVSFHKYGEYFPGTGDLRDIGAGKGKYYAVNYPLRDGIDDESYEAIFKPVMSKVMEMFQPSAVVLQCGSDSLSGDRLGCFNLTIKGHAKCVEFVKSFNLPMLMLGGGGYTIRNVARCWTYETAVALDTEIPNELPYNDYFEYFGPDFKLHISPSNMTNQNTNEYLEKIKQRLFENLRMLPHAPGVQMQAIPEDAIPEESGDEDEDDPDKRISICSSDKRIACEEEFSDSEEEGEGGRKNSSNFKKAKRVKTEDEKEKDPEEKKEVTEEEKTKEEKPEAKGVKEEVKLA
Chain of Histone deacetylase (HDAC1 and HDAC2) (Homo sapiens) (Q92769 whole entry, looked up): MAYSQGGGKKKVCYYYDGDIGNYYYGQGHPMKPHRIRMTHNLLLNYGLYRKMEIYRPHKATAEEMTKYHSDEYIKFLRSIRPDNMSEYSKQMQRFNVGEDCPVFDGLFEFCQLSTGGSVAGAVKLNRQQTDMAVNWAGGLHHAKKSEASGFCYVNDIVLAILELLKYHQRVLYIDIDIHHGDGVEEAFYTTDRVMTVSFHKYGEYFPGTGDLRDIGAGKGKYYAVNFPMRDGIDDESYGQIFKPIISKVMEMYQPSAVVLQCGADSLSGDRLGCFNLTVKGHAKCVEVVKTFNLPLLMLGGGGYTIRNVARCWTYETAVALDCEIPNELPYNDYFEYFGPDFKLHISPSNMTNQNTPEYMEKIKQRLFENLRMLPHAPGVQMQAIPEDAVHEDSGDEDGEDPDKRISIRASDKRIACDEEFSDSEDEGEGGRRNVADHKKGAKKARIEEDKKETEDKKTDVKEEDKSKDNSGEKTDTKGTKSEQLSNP
Chain of Histone deacetylase 4 (P56524 whole entry): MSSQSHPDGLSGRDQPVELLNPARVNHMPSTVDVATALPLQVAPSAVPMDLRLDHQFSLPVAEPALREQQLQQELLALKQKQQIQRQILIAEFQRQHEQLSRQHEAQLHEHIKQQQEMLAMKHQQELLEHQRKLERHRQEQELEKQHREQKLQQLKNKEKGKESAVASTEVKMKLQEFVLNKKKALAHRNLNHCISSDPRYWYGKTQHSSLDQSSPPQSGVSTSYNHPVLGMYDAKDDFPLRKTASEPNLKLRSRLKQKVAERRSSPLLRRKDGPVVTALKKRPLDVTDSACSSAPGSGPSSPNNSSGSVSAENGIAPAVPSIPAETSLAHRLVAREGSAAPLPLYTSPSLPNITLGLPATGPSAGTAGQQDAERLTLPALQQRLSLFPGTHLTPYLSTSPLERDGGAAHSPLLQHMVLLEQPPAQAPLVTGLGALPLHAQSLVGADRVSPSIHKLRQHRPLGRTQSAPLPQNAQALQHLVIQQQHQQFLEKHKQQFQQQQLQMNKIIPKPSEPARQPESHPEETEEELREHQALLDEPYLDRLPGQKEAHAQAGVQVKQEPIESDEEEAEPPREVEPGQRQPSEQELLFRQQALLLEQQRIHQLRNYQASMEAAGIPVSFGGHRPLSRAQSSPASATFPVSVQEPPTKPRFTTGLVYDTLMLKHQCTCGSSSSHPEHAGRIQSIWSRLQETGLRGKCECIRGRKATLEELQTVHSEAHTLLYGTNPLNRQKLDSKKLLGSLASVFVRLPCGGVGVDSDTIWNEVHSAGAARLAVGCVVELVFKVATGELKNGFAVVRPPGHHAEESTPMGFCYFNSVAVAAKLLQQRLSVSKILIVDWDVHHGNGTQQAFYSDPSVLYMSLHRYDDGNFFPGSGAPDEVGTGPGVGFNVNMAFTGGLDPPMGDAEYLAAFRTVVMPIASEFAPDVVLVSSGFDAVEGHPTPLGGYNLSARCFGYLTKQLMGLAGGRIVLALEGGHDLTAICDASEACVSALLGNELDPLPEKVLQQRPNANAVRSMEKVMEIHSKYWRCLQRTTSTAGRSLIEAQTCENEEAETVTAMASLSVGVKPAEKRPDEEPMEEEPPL
Chain of Histone deacetylase 5 (Q9UQL6 whole entry): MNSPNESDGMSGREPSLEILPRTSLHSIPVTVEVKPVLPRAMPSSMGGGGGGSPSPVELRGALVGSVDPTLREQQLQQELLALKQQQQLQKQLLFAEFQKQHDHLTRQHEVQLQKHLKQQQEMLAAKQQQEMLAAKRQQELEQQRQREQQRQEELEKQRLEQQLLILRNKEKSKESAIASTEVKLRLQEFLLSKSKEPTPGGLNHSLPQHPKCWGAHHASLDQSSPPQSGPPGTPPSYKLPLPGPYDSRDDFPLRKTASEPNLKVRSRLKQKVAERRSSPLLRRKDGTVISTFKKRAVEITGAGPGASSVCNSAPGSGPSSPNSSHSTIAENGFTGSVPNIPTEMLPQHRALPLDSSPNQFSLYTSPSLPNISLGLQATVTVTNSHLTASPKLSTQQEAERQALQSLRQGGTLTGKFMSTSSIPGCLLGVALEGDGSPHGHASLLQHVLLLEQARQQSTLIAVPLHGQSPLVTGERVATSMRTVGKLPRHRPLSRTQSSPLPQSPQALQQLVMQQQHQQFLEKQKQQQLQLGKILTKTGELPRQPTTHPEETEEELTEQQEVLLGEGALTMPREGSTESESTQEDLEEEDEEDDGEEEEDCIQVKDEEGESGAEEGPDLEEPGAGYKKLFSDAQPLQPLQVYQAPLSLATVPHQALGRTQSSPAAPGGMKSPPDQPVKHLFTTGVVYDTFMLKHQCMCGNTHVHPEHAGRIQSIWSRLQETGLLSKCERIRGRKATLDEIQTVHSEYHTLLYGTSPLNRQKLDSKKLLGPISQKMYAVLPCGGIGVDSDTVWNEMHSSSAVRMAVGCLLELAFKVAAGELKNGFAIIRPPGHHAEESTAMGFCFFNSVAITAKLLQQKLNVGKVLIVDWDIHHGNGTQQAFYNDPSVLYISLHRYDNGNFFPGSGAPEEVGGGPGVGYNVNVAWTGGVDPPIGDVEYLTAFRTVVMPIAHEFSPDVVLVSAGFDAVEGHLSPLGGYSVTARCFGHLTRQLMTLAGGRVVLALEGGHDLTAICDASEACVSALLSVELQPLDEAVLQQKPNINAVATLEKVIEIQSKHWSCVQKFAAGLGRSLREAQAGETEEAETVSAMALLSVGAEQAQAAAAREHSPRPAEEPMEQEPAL
Chain of Histone deacetylase 3 (O15379 whole entry): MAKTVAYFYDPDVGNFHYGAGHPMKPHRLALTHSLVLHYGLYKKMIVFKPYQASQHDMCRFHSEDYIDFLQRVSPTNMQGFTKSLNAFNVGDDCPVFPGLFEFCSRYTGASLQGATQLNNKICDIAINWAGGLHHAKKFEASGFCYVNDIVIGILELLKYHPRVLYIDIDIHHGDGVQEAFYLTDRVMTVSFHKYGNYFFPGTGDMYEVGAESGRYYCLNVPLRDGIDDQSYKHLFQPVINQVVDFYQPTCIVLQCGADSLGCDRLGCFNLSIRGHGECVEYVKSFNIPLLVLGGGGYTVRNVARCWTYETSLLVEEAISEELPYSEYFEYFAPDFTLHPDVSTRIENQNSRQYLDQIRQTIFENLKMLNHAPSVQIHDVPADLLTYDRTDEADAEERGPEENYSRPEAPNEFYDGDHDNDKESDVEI
Chain of Histone deacetylase 2 (Q92769 whole entry): as the sequence (Q92769 whole entry, looked up) above
Chain of Histone deacetylase 1 (Q13547 whole entry): as the sequence (Q13547 whole entry, looked up) above

pIC50 [1]	pIC50 [2]	inhibition [3]	SMILES	Ratio IC50 (HeLa)	further results
7.48	7.16	< 20%	Cn1cccc1C(=O)N1CCn2cc(C(=O)NO)cc2C1	–	pIC50 (Histone deacetylase 1): 4.82; pIC50 (Histone deacetylase 2): 4.41; pIC50 (Histone deacetylase 3): 5.07; pIC50 (Histone deacetylase 4): < 4.30; pIC50 (Histone deacetylase 5): 4.54; pIC50 (Histone deacetylase 8): 5.48; pIC50 [4]: 4.39; pIC50 (Histone deacetylase 11): 4.54; solubility [5]: > 200 µM; Papp [6]: 4.2 ×10⁻⁶ cm/s
7.00	6.14	< 20%	O=C(NO)c1cc2n(c1)CCN(C(=O)C1CCCCC1)C2	250	–
6.46	5.66	< 20%	Cn1cccc1C(=O)N1CCn2nc(C(=O)NO)cc2C1	220	–
7.37	7.00	< 20%	COc1ccc(C(=O)N2CCn3cc(C(=O)NO)cc3C2)cc1	130	–
6.89	–	< 20%	Cn1cccc1C(=O)N1CCn2cc(C(=O)NO)nc2C1	770	–
–	–	< 20%	Cn1cccc1C(=O)NCc1ccc(C(=O)NO)cc1	115	–
–	–	< 20%	Cn1cccc1C(=O)N1CCc2cc(C(=O)NO)ccc2C1	500	–
7.41	–	< 20%	O=C(NO)c1cc2n(c1)CCN(C(=O)c1cc3ccccc3s1)C2	14	–
6.55	–	< 20%	O=C(NO)c1cc2n(c1)CCN(C(=O)c1cc3ccccc3[nH]1)C2	24	–
6.72	–	< 20%	Cn1cc(C(=O)N2CCn3cc(C(=O)NO)cc3C2)c2ccccc21	6.3	–
7.07	6.85	< 20%	Cn1ccc2cc(C(=O)N3CCn4cc(C(=O)NO)cc4C3)ccc21	35	–
7.48	6.82	< 20%	Cn1c(C(=O)N2CCn3cc(C(=O)NO)cc3C2)cc(Cl)c1Cl	100	–
7.06	5.68	< 20%	O=C(NO)c1cn2c(n1)CN(C(=O)c1ccc(-c3ccccc3)cc1)CC2	70	–
7.49	–	< 20%	O=C(NO)c1cc2n(c1)CCN(C(=O)c1ccc(-c3ccccc3)cc1)C2	44	–
6.96	–	< 20%	O=C(NO)c1cc2n(c1)CCN(C(=O)c1cccs1)C2	150	–
6.09	–	< 20%	COc1ccc(C(=O)N2CCn3nc(C(=O)NO)cc3C2)cc1	120	–
7.19	–	< 20%	O=C(NO)c1cn2c(n1)CN(C(=O)c1cc3ccccc3s1)CC2	52	–
7.12	5.46	< 20%	Cn1c(C(=O)N2CCn3nc(C(=O)NO)cc3C2)cc2ccccc21	66	–
